# Measurements taken from US20110076293A1, “TRIPTOLIDE DERIVATIVES FOR MODULATION OF APOPTOSIS AND IMMUNOSUPPRESSION” (priority 2002, published 2011).
# Where two headings read alike, the source gives them in different places.
# Experiments:
# in vitro = assay: in vitro
# Method: (§1) Compounds of formula I, as shown in Table 1 above and in the Examples, were assayed for their capacity to induce apoptosis in cells from the Jurkat human T lymphocyte cell line, after incubation with pooled human serum for varying periods of time at 37° C. (see Example 19). An ester prodrug, triptolide-14-succinate, designated PG490-88, was included for comparison. The extent of conversion to triptolide after such incubation was also independently determined by HPLC analysis.
# Prodrug conversions to triptolide as determined independently by HPLC are given in […].
# [1] = test system: Jurkat human T lymphocyte cell line; assay: Apoptosis assay (Annexin V) of compounds incubated with human serum; conditions: for EC50: Homo sapiens, Jurkat
# Method: as §1
# The ED50 values (column 3) are calculated directly from the data in each experiment, and the % conversion values (column 4) are calculated as percent of the ED50 value produced by triptolide, designated PG490, incubated in the same plasma (i.e. in the same experiment).
# A. Incubation of compounds with human serum. Pooled human serum was stored in aliquots at −80° C. Test compounds were added at 20 mM to thawed human serum in 1.5 ml microfuge tubes and incubated at 37° C. in a water bath for varying periods of time. The test samples were placed on ice until dilution for the bioassay. Controls consisted of the compounds incubated in complete tissue culture medium (RPMI 1640 medium plus 5% heat-inactivated fetal calf serum, 1% HEPES, 1% pen/strep, 1% glutamine) rather than human serum.
# B. Apoptosis assay of compounds incubated with human serum. Test samples were diluted to 1 mM in complete tissue culture medium. Aliquots were placed in microculture plates and serial dilutions were prepared so that the final concentration would encompass the range of 1 to 10,000 nM with half-log increments. Cells from an exponentially expanding culture of the Jurkat human T lymphocyte cell line (#TIB-152 obtained from American Type Culture Collection, Manassas, Va.) were harvested, washed once by centrifugation and dilution in complete tissue culture medium, and diluted to a concentration of 1×10^6 cells/ml. A volume of 100 μl of Jurkat cells (1×10^5 cells) was added to wells containing 100 μl of the diluted compounds, and the plates were incubated at 37° C. in a 5% CO2 incubator. After 24 hours, the plates were centrifuged to pellet the cells, and the cells were washed twice with 2% heat-inactivated fetal calf serum in PBS. To each well, 500 ul of binding buffer was added according to the Annexin V assay procedure (BioVision, Inc., Mountain View, Calif.). Next, 5 μl of the fluorescein isothiocyanate (FITC) conjugate of Annexin V (BioVision, Inc.) was added to each well, followed by 5 minutes of incubation in the dark. In some assays, propidium iodide (BioVision, Inc.) was added at this stage to check for necrotic cells. The contents of the wells were individually transferred into test tubes, and apoptosis was analyzed using a FACSCalibur flow cytometer (BD Immunocytometry Systems, San Jose, Calif.). Cells positive for Annexin V binding were considered to be apoptotic, and the data were calculated as percent apoptotic cells.
# (§2) C. Comparison of bioactivities after incubation of compounds in human serum. The data were plotted as the concentration of compound incubated in serum versus percent apoptotic cells. The concentration of compound inducing 50% apoptosis (ED50) was calculated from these dose response curves. […] This percentage conversion was used to compare the bioactivity of various compounds after incubation in human serum.
# [2] = test system: IL-2 production in Jurkat human T lymphocyte cells; assay: IL-2 production assay for activity of compounds incubated with human serum
# Method: Several compounds of formula I were analyzed for their capacity to inhibit IL-2 production in Jurkat human T lymphocyte cells, after incubation with pooled human serum for 48 hours at 37° C. (see Example 20). An ester prodrug, triptolide-14-succinate, designated PG490-88, was included for comparison.
# The IC50 values (column 1) are calculated directly from the data in each experiment. The % conversion values (column 2) are calculated as the percent of the IC50 value produced by triptolide, designated PG490, incubated in the same plasma (i.e. in the same experiment).
# A. IL-2 production assay for activity of compounds incubated with human serum. Test samples were diluted to 1 mM in complete tissue culture medium. […] Cells from an exponentially expanding culture of the Jurkat human T lymphocyte cell line (#TIB-152 obtained from American Type Culture Collection, Manassas, Va.) were harvested, washed once by centrifugation and dilution in complete tissue culture medium, and diluted to a concentration of 2×10^6 cells/ml. A volume of 50 μl of Jurkat cells (1×10^5 cells) was added to wells containing 100 μl of the diluted compounds, 50 μl of PMA (10 ng/ml) was added to each well, and the plates were incubated at 37° C. in a 5% CO2 incubator. After 24 hours, the plates were centrifuged to pellet the cells, 150 μl of supernatant was removed from each well, and the samples were stored at −20° C. The stored supernatants were analyzed for human IL-2 concentration using the Luminex 100 (Luminex Corporation, Austin, Tex.), Luminex microspheres coupled with anti-IL-2 capture antibody, and fluorochrome-coupled anti-IL-2 detection antibody. The data were expressed as ng/ml of IL-2.
# as §2, with “B.” for “C.”, “IL-2 concentration.” for “percent apoptotic cells.”, “inducing a” for “inducing”, “decrease in the IL-2 concentration (IC50)” for “apoptosis (ED50)”
Compound,"half-life (in vitro; human, plasma)","EC50 ([1]; 0.5 h, read-out: ED50 (nM) in apoptosis assay after incubation with serum, incubation time in human serum 0.5 hours, 37° C.)","EC50 ([1]; 1 h, read-out: ED50 (nM) in apoptosis assay after incubation with serum, incubation time in human serum 1 hour, 37° C.)","EC50 ([1]; 24 h, read-out: ED50 (nM) in apoptosis assay after incubation with serum, incubation time in human serum 24 hours, 37° C.)","EC50 ([1]; 48 h, read-out: ED50 (nM) in apoptosis assay after incubation with serum, incubation time in human serum 48 hours, 37° C.)","Conversion, as relative ED50 compared to triptolide (%) ([1]; incubation time in human serum 0.5 hours)","Conversion, as relative ED50 compared to triptolide (%) ([1]; incubation time in human serum 1 hour)","Conversion, as relative ED50 compared to triptolide (%) ([1]; incubation time in human serum 24 hours)","Conversion, as relative ED50 compared to triptolide (%) ([1]; incubation time in human serum 48 hours)",IC50 ([2]; IL-2 production in Jurkat cells after incubation with pooled human serum for 48 hours at 37° C.),"Conversion (%) ([2]; percent of the IC50 value produced by triptolide (PG490) in the same experiment, human serum 48 hours)","max. conversion at 48 hr in human plasma by HPLC (in vitro; incomplete conversion to triptolide, 48 hr incubation)"
"CCOC(=O)O[C@@H]1[C@@]2(C(C)C)O[C@H]2[C@@H]2O[C@]23[C@]12O[C@H]2C[C@H]1C2=C(CC[C@@]13C)C(=O)OC2 [PG674, Triptolide 14-Ethyl Carbonate]",12 min,27 nM,55 nM,60 nM,65 nM,188%,98%,97%,100%,–,–,–
"CC(C)[C@]12O[C@H]1[C@@H]1O[C@]13[C@]1(O[C@H]1C[C@H]1C4=C(CC[C@@]13C)C(=O)OC4)[C@@H]2OC(=O)OCC(=O)[O-].[Na+] [PG687Na, Sodium Salt of Triptolide 14-Hydroxycarbonylmethyl Carbonate]",–,–,–,–,–,–,–,–,–,92 nM,1%,10%
